According to patent US20090208445A1, “Compositions Comprising Eucalyptol And/Or Ocimene And/Or Farnesol For Use As Bumblebee Pheromones” (QUEEN MARY & WESTFIELD COLLEGE, priority 2005, published 2009):

Columns and labels:
[1] = tested on: Bombus terrestris; test: Behavioural effect of individual compounds on forager recruitment (foragers leaving the nest in search for food); type: in vivo; settings: 10 μl of 200 mg l-1 in acetone on filter paper in nest box lid every 5 min for 30 min vs preceding 30 min; 7 repeats, Wilcoxon test
Protocol: All experiments were performed with lab-reared colonies of Bombus terrestris with 30-50 workers. A total of ten colonies were used. Each nest was contained in a wooden box (26 cm·14 cm·10 cm), which was connected to a foraging arena (40 cm·60 cm·30 cm) with a Plexiglas tube of 30 cm length. Nest box and foraging arena had transparent Plexiglas covers, so that the behaviour of the bees could be observed. The arena contained a feeder at certain times of the experiment (see below).
To this end, 10 μl of solution of the individual compounds at 200 mg 1^−1 acetone, were dispensed onto a filter paper placed in a glass tube in the lid of the nest box. This was repeated every 5 minutes for half an hour, and numbers of foragers entering the flight arena in search for food were counted in 5 min intervals during the experimental half hour and in the preceding 30 min (control period). This experiment was repeated 7 times which each individual compound. In addition, 7 control runs were performed with acetone, to exclude the possibility that the solvent itself provoked a behavioural response. Tests were done in random sequence with three bumblebee colonies, with at least 4 h between tests on a single colony. None of the compounds were tested twice on the same day with the same colony.

[2] = tested on: Bombus terrestris; test: Mobilisation of individually marked foragers of a colony by eucalyptol; type: in vivo
Protocol: To this end, all foragers were marked that arrived at an ad libitum sucrose feeder in a flight arena connected to a large nest (with >80 workers), over a period of two days. Bees were given individual number plates (Opalith). Then the colony was starved for 1 day, and on the next day, a sucrose feeder was inserted into the arena for one hour. After 30 min, the colony was exposed to eucalyptol as described above. Bees were caught immediately upon arrival, so that they could not provide feedback to the colony.

Structure (SMILES)	Effect on numbers of foragers leaving the nest in search for food [1]	Time for the remaining foragers to arrive after exposure of the colony ([2]; 13 remaining of 17 active foragers)	Forager force of the colony activated ([2]; colony with 17 active marked foragers, starved 1 day, eucalyptol inserted after 30 min)	Number of foragers arriving at the feeder after exposure of the colony ([2]; of 17 active foragers, 4 had arrived in the 30 min before exposure)
CC(C)=CCCC(C)=CCCC(C)=CCO [E,E-farnesol, 3,7,11-trimethyl-2,6,10-dodecatrien-1-ol]	non-significant rise in activity			
CC12CCC(CC1)C(C)(C)O2 [Eucalyptol, 1,3,3-Trimethyl-2-oxabicyclo[2.2.2.]octane]	strongest response	≤ 15 min	entire forager force of the colony was activated	13 foragers
